Patent US9617244B2, “Antibacterial quinoline derivatives” (JANSSEN PHARMACEUTICA NV, priority 2012, dated 2017)
Where a name gives a salt, the structure may show the parent alone.

melting point | SMILES
157 °C | COc1nc2ccccc2cc1C(c1ccccc1)C1(O)CCNC(Cc2ccccc2)C1 (stereo not drawn) (as salt: fumarate) [Compound 400]
> 250 °C | CSc1ccc2[nH]c(=O)c(C(c3cccc(Cl)c3)C3(O)CCNC(c4ccc(F)cc4C)C3)cc2c1 (stereo not drawn) (as salt: hydrochloride) [Compound 160]
154 °C | COc1nc2ccc(Br)cc2cc1C(c1ccc(Cl)cc1)C1(O)CCN(Cc2ccccc2)CC1C (stereo not drawn) (as salt: salt) [Compound 25]
183 °C | O=c1[nH]c2ccc(Br)cc2cc1C(c1ccc(Cl)cc1)C1(O)CCNCC1Cc1cccc(F)c1 (stereo not drawn) (as salt: hydrochloride) [Compound 49]
170 °C | COc1nc2ccc(SC)cc2cc1C(c1cccc(Cl)c1)C1(O)CCNC(c2ccc(F)cc2C)C1 (stereo not drawn) (as salt: fumarate) [Compound 164]
169 °C | COc1nc2ccc(Br)cc2cc1C(c1ccc(Cl)cc1)C1(O)CCNC(Cc2ccc(F)cc2F)C1 (stereo not drawn) (as salt: trifluoroacetate) [Compound 319]
206 °C | CSc1ccc2[nH]c(=O)c(C(c3ccc(Cl)cc3)C3(O)CCNC(Cc4ccc(F)cc4)C3)cc2c1 (stereo not drawn) (as salt: hydrochloride) [Compound 282]
168 to 170 °C | COc1nc2ccc(Cl)cc2cc1C(c1ccc(SC)cc1)C1(O)CCNC(c2ccc(F)cc2C)C1 (stereo not drawn) (as salt: fumarate) [Compound 354]
144 °C | COc1nc2ccc(S(C)(=O)=O)cc2cc1C(c1cccc(Cl)c1)C1(O)CCNC(Cc2ccc(F)cc2F)C1 (stereo not drawn) (as salt: trifluoroacetate) [Compound 325]
> 250 °C | Cc1cc(F)ccc1C1CC(O)(C(c2ccccc2)c2cc3cc(Br)ccc3[nH]c2=O)CCN1 (stereo not drawn) (as salt: hydrochloride) [Compound 192]
168 °C | COc1nc2ccc(Cl)cc2cc1C(c1ccc(Cl)cc1)C1(O)CCNC(c2ccccc2)C1 (stereo not drawn) (as salt: fumarate) [Compound 404]
155 °C | COc1nc2ccc(SC)cc2cc1C(c1ccccc1)C1(O)CCNC(Cc2ccccc2)C1 (stereo not drawn) (as salt: fumarate) [Compound 141]
241 °C | CC1CC(O)(C(c2ccc(Cl)cc2)c2cc3cc(Br)ccc3[nH]c2=O)CCN1 (stereo not drawn) (as salt: hydrochloride) [Compound 131]
120 °C | COc1nc2ccc(F)cc2cc1C(c1ccc(Cl)cc1)C1(O)CCNC(Cc2ccccc2)C1 (stereo not drawn) (as salt: fumarate) [Compound 55]
170 °C | COc1nc2ccc(F)cc2cc1C(c1ccc(Cl)cc1)C1(O)CCNC(c2ccc(F)cc2C)C1 (stereo not drawn) (as salt: fumarate) [Compound 330]
> 250 °C | Cc1cc(F)ccc1C1CC(O)(C(c2cccc(Cl)c2)c2cc3cc(S(C)(=O)=O)ccc3[nH]c2=O)CCN1 (stereo not drawn) (as salt: hydrochloride) [Compound 159]
166 to 168 °C | COc1nc2ccccc2cc1C(c1ccccc1)C1(O)CCNC(c2ccc(F)cc2C)C1 (stereo not drawn) (as salt: fumaric acid salt) [Compound 16]
> 260 °C | CSc1ccc2[nH]c(=O)c(C(c3cccc(Cl)c3)C3(O)CCNC(Cc4ccc(F)cc4F)C3)cc2c1 (stereo not drawn) (as salt: hydrochloride) [Compound 309]
184 °C | COc1nc2ccc(Cl)cc2cc1C(c1ccc(Cl)cc1)C1(O)CCNC(c2ccccc2)C1 (stereo not drawn) (as salt: fumarate) [Compound 405]

melting point | SMILES
> 250 °C | O=c1[nH]c2ccc(F)cc2cc1C(c1ccc(Cl)cc1)C1(O)CCNC(Cc2ccccc2)C1 (stereo not drawn) (as salt: hydrochloride) [Compound 375]
222 to 224 °C | COc1nc2ccccc2cc1C(c1ccccc1)C1(O)CCNC(Cc2ccccc2)C1 (stereo not drawn) (as salt: fumarate) [Compound 399]
> 250 °C | COc1nc2ccc(SC)cc2cc1C(c1ccc(Cl)cc1)C1(O)CCNC(Cc2ccccc2)C1 (stereo not drawn) (as salt: fumarate) [Compound 93]
170 °C | COc1nc2ccc(Br)cc2cc1C(c1cccc(Cl)c1)C1(O)CCNC(c2ccc(F)cc2C)C1 (stereo not drawn) (as salt: fumarate) [Compound 152]
238 °C | COc1nc2ccc(Br)cc2cc1C(c1ccc(Cl)cc1)C1(O)CCN(Cc2ccccc2)CC1C (stereo not drawn) (as salt: salt) [Compound 26]
209 °C | COc1nc2ccc(F)cc2cc1C(c1ccc(Cl)cc1)C1(O)CCNC(Cc2ccccc2)C1 (stereo not drawn) (as salt: fumarate) [Compound 54]
150 °C | COc1nc2ccc(SC)cc2cc1C(c1ccc(Cl)cc1)C1(O)CCNC(CC2CCCCC2)C1 (stereo not drawn) (as salt: fumarate) [Compound 288]
> 260 °C | CS(=O)(=O)c1ccc2[nH]c(=O)c(C(c3cccc(Cl)c3)C3(O)CCNC(Cc4ccc(F)cc4F)C3)cc2c1 (stereo not drawn) (as salt: hydrochloride) [Compound 308]
160 to 162 °C | COc1nc2ccccc2cc1C(c1ccccc1)C1(O)CCNC(c2ccc(F)cc2C)C1 (stereo not drawn) (as salt: fumarate) [Compound 416]
192 °C | COc1nc2ccc(Br)cc2cc1C(c1ccc(Cl)cc1)C1(O)CCN(Cc2ccccc2)C(Cc2ccccc2)C1 (stereo not drawn) [Compound 75]
168 °C | COc1nc2ccc(Cl)cc2cc1C(c1ccc(Cl)cc1)C1(O)CCNC(Cc2ccccc2)C1 (stereo not drawn) (as salt: fumarate) [Compound 94]
215 °C | CS(=O)(=O)c1ccc2[nH]c(=O)c(C(c3ccc(Cl)cc3)C3(O)CCNC(Cc4ccccc4)C3)cc2c1 (stereo not drawn) (as salt: fumarate) [Compound 119]
> 260 °C | O=c1[nH]c2ccc(Br)cc2cc1C(c1cccc(Cl)c1)C1(O)CCNC(Cc2ccccc2)C1 (stereo not drawn) (as salt: hydrochloride) [Compound 85]
> 250 °C | CSc1ccc2[nH]c(=O)c(C(c3ccc(Cl)cc3)C3(O)CCNC(Cc4ccc(F)cc4)C3)cc2c1 (stereo not drawn) (as salt: hydrochloride) [Compound 281]
167 °C | COc1nc2ccc(Cl)cc2cc1C(c1ccc(Cl)cc1)C1(O)CCNC(c2ccc3ccccc3c2)C1 (stereo not drawn) (as salt: fumarate) [Compound 432]
> 250 °C | O=c1[nH]c2ccc(Br)cc2cc1C(c1ccc(Cl)cc1)C1(O)CCNC(CC2CCCCC2)C1 (stereo not drawn) (as salt: hydrochloride) [Compound 254]
152 to 154 °C | COc1nc2ccc(Cl)cc2cc1C(c1ccc(Cl)cc1)C1(O)CCNC(Cc2ccc(F)cc2)C1 (stereo not drawn) (as salt: fumarate) [Compound 345]
174 °C | COc1nc2ccc(Br)cc2cc1C(c1cccnc1)C1(O)CCNC(Cc2ccccc2)C1 (stereo not drawn) (as salt: fumarate) [Compound 427]
> 250 °C | CSc1ccc(C(c2cc3cc(Cl)ccc3[nH]c2=O)C2(O)CCNC(c3ccc(F)cc3C)C2)cc1 (stereo not drawn) (as salt: hydrochloride) [Compound 349]

melting point | SMILES
166 °C | COc1nc2ccc(Cl)cc2cc1C(c1ccc(Cl)cc1)C1(O)CCNCC1c1ccccc1 (stereo not drawn) (as salt: fumarate) [Compound 412]
> 250 °C | CS(=O)(=O)c1ccc2[nH]c(=O)c(C(c3ccc(Cl)cc3)C3(O)CCNC(Cc4ccc(F)c(F)c4)C3)cc2c1 (stereo not drawn) (as salt: hydrochloride) [Compound 212]
160 °C | COc1nc2ccccc2cc1C(c1ccccc1)C1(O)CCNC(c2ccccc2)C1 (stereo not drawn) (as salt: fumarate) [Compound 415]
166 °C | COc1nc2ccc(S(C)(=O)=O)cc2cc1C(c1cccc(Cl)c1)C1(O)CCNC(Cc2ccc(F)cc2F)C1 (stereo not drawn) (as salt: trifluoroacetate) [Compound 326]
190 °C | COc1nc2ccc(Cl)cc2cc1C(c1ccc(Cl)cc1)C1(O)CCNCC1c1ccccc1 (stereo not drawn) (as salt: fumarate) [Compound 409]
195 °C | COc1nc2ccc(S(C)(=O)=O)cc2cc1C(c1ccc(Cl)cc1)C1(O)CCNC(c2ccc(F)cc2C)C1 (stereo not drawn) (as salt: fumarate) [Compound 201]
248 °C | O=c1[nH]c2ccc(Br)cc2cc1C(c1ccc(Cl)cc1)C1(O)CCNC(Cc2ccc(F)cc2F)C1 (stereo not drawn) (as salt: hydrochloride) [Compound 322]
184 °C | COc1nc2ccc(Cl)cc2cc1C(c1ccc(Cl)cc1)C1(O)CCNC(c2ccc3ccccc3c2)C1 (stereo not drawn) (as salt: fumarate) [Compound 430]
> 260 °C | COc1nc2ccc(Br)cc2cc1C(n1cccn1)C1(O)CCNC(Cc2ccccc2)C1 (stereo not drawn) (as salt: fumarate) [Compound 429]
> 250 °C | CSc1ccc2[nH]c(=O)c(C(c3ccc(Cl)cc3)C3(O)CCNC(CC4CCCCC4)C3)cc2c1 (stereo not drawn) (as salt: hydrochloride) [Compound 295]
184 °C | COc1nc2ccc(Br)cc2cc1C(c1cccc(Cl)c1)C1(O)CCNC(c2ccc(F)cc2C)C1 (stereo not drawn) (as salt: fumarate) [Compound 150]
> 250 °C | O=c1[nH]c2ccc(Cl)cc2cc1C(c1ccc(Cl)cc1)C1(O)CCNC(Cc2ccccc2)C1 (stereo not drawn) (as salt: hydrochloride) [Compound 239]
178 °C | COc1nc2ccc(Cl)cc2cc1C(c1ccc(Cl)cc1)C1(O)CCNC(c2ccc3ccccc3c2)C1 (stereo not drawn) (as salt: fumarate) [Compound 431]
208 °C | COc1nc2ccc(SC)cc2cc1C(c1cccc(Cl)c1)C1(O)CCNC(Cc2ccc(F)cc2F)C1 (stereo not drawn) (as salt: trifluoroacetate) [Compound 50]
126 °C | CSc1ccc2[nH]c(=O)c(C(c3cccc(Cl)c3)C3(O)CCNC(Cc4ccc(F)cc4F)C3)cc2c1 (stereo not drawn) (as salt: hydrochloride) [Compound 310]
234 °C | O=c1[nH]c2ccc(Br)cc2cc1C(c1ccc(Cl)cc1)C1(O)CCNC(Cc2ccc(F)cc2F)C1 (stereo not drawn) (as salt: hydrochloride) [Compound 314]
> 250 °C | Cc1cc(F)ccc1C1CC(O)(C(c2cccc(Cl)c2)c2cc3cc(Br)ccc3[nH]c2=O)CCN1 (stereo not drawn) (as salt: hydrochloride) [Compound 135]
157 °C | COc1nc2ccc(S(C)(=O)=O)cc2cc1C(c1ccc(Cl)cc1)C1(O)CCNC(Cc2ccc(F)cc2F)C1 (stereo not drawn) (as salt: trifluoroacetate) [Compound 306]
130 °C | COc1nc2ccccc2cc1C(c1ccc(Cl)cc1)C1(O)CCNC(Cc2ccc(F)c(F)c2)C1 (stereo not drawn) (as salt: fumarate) [Compound 139]
